In patent US9382254B2, “Compounds and pharmaceutical compositions thereof for the treatment of cystic fibrosis” (Galapagos NV, priority 2013, dated 2016) one finds EC50 data, which are given here for 13 molecules.

Structures are written as SMILES.

Test [1] addresses T1, CFTR ΔF508 mutant (Homo sapiens, UniProt P13569, DEL508-508).
T1 construct: expressed in transfected cells; host or cells: CFBE41o- (adenoviral transduction)
The test is described as follows: YFP-halide influx assay for the CFTR-ΔF508 mutation (384 well, FDSS/μCell). The note with it: CFBE41o- cells, CFTR-ΔF508, 1×D-PBS, fluorescence after 36 seconds. The class given is cell-based. A digest of the protocol: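 Potentiator read-out as 1−F/F0, F taken 36 s after iodide addition, EC50 fitted against compound concentration. Cells: CFBE41o- expressing ΔF508 CFTR plus halide-sensitive YFP via adenovirus, rescued by 27 °C for 24 h or 24 h modulator at 37 °C.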

Test [2] concerns the target T1, CFTR ΔF508 mutant. The test is described as follows: YFP-halide influx assay for the CFTR-ΔF508 mutation, gluconate buffer. As to conditions: CFBE41o- cells, forskolin 10.67 μM. The class given is cell-based. The procedure, abridged: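 Channel opening is read as the fall in YFP fluorescence over 7 s following iodide injection, expressed as 1-F/F0 and plotted versus compound concentration to derive EC50. Cells used were CFBE41o- expressing adenoviral ΔF508 CFTR and halide-sensitive YFP, rescued by 24 h at 27 °C or 24 h modulator treatment at 37 °C.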

T1 sequence (P13569 with tags, fused parts or gaps DEL508-508): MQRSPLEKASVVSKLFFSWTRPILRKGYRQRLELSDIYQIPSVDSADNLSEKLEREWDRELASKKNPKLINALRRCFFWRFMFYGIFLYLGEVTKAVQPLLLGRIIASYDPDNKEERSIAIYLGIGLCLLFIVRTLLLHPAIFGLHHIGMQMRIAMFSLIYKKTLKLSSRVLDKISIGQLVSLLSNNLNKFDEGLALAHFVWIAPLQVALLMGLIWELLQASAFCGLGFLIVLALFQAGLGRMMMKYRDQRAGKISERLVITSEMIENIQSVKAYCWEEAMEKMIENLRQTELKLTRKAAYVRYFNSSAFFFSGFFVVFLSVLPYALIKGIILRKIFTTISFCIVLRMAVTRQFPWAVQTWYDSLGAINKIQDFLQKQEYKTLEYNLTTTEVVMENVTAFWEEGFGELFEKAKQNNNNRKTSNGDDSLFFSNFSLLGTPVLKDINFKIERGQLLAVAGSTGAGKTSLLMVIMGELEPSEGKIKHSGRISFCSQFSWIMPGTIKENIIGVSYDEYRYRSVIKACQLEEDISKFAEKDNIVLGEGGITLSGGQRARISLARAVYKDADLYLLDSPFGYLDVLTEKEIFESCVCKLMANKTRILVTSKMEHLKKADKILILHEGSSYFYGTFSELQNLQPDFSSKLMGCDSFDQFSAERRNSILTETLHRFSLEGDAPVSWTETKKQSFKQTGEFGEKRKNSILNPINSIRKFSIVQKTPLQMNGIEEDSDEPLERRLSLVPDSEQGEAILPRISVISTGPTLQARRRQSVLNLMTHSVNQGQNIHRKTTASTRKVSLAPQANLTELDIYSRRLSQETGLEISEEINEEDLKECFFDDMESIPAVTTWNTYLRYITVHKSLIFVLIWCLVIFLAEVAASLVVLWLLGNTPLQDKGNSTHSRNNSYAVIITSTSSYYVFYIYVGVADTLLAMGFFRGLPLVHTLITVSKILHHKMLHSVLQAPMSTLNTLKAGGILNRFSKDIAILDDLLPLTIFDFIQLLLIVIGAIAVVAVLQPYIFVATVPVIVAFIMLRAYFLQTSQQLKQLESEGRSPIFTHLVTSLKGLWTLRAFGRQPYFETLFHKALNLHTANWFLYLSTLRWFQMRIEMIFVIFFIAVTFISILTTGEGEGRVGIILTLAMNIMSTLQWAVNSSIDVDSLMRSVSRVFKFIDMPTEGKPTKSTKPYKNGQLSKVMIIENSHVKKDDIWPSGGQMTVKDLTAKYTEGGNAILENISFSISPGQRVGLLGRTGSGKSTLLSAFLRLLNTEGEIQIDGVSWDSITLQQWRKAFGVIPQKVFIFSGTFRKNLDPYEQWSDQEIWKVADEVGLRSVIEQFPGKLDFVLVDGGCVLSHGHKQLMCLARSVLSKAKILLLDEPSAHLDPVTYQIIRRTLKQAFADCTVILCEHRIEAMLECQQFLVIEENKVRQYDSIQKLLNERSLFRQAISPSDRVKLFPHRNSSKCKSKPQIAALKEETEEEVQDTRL

What is called EC50 is the concentration giving half of the maximal effect. As for `Cc1c(S(=O)(=O)c2ccccc2)sc(NC(=O)c2ccccc2F)c1C(N)=O` [Compound 87, 2-(2-fluorobenzamido)-4-methyl-5-(phenylsulfonyl) thiophene-3-carboxamide], the EC50 on CFTR ΔF508 mutant [1] was 84.3 nM; on CFTR ΔF508 mutant [2], 44.1 nM.

In the case of `CC(C)N(C(C)C)S(=O)(=O)c1cc(C(N)=O)c(NC(=O)c2ccccc2F)s1` [Compound 154, 5-(N,N-diisopropylsulfamoyl)-2-(2-fluorobenzamido) thiophene-3-carboxamide], the EC50 on CFTR ΔF508 mutant [1] was determined as 427 nM; on CFTR ΔF508 mutant [2], 105 nM.

As to `CCN(CC)S(=O)(=O)c1cc(C(N)=O)c(NC(=O)c2ccc(C)s2)s1` [Compound 4, N-(3-carbamoyl-5-(N,N-diethylsulfamoyl)thiophen-2-yl)-5-methylthiophene-2-carboxamide], the EC50 worked out at 135 nM on CFTR ΔF508 mutant [1] and 94 nM on CFTR ΔF508 mutant [2].

For `Cc1c(S(=O)(=O)c2ccccc2)sc(NC(=O)c2cc[nH]n2)c1C(N)=O` [Compound 101, N-(3-carbamoyl-4-methyl-5-(phenylsulfonyl)thiophen-2-yl)-1H-pyrazole-3-carboxamide], the EC50 turned out to be 26.8 nM on CFTR ΔF508 mutant [1] and 20.5 nM at CFTR ΔF508 mutant [2].

For the molecule `CN(c1ccc(F)cc1)S(=O)(=O)c1cc(C(N)=O)c(NC(=O)c2cc[nH]n2)s1` [Compound 173, 1H-Pyrazole-3-carboxylic acid {3-carbamoyl-5-[(4-fluoro-phenyl)-methyl-sulfamoyl]-thiophen-2-yl}-amide], the values for the EC50 on CFTR ΔF508 mutant [1] and on CFTR ΔF508 mutant [2] were 15.8 nM and 21 nM, respectively.

With `Cc1ccc(CN(C)S(=O)(=O)c2cc(C(N)=O)c(NC(=O)c3cc[nH]n3)s2)cc1` [Compound 170, N-(3-carbamoyl-5-(N-methyl-N-(4-methylbenzyl)sulfamoyl)thiophen-2-yl)-1H-pyrazole-3-carboxamide], the concentration for a half-maximal effect (EC50) at CFTR ΔF508 mutant [1] is 184 nM; at CFTR ΔF508 mutant [2], 38 nM.

As for `CCc1cc(C(=O)Nc2sc(S(=O)(=O)c3ccccc3)c(C)c2C(N)=O)n[nH]1` [Compound 103, N-(3-carbamoyl-4-methyl-5-(phenylsulfonyl)thiophen-2-yl)-5-ethyl-1H-pyrazole-3-carboxamide], the EC50 at CFTR ΔF508 mutant [1] came out at 54.6 nM; at CFTR ΔF508 mutant [2], 38.4 nM.

For the molecule `NC(=O)c1cc(S(=O)(=O)c2ccc(F)c(F)c2)sc1NC(=O)c1cc[nH]n1` [Compound 118, N-(3-carbamoyl-5-(3,4-difluorophenylsulfonyl)thiophen-2-yl)-1H-pyrazole-3-carboxamide], the EC50 worked out at 9.6 nM at CFTR ΔF508 mutant [1] and 36 nM at CFTR ΔF508 mutant [2].

Regarding `CC(C)N(C)S(=O)(=O)c1cc(C(N)=O)c(NC(=O)c2ccccc2F)s1` [Compound 153, 2-(2-fluorobenzamido)-5-(N-isopropyl-N-methylsulfamoyl) thiophene-3-carboxamide], the EC50 at CFTR ΔF508 mutant [1] and on CFTR ΔF508 mutant [2] was 46 nM each time.

For `COC1CCN(S(=O)(=O)c2cc(C(N)=O)c(NC(=O)c3ccccc3F)s2)CC1` [Compound 123, 2-(2-fluorobenzamido)-5-(4-methoxypiperidin-1-ylsulfonyl)thiophene-3-carboxamide], the results for the EC50 on CFTR ΔF508 mutant [1] and on CFTR ΔF508 mutant [2] were 76.4 nM and 76.9 nM, respectively.

With `COCCCN(C)S(=O)(=O)c1cc(C(N)=O)c(NC(=O)c2cc[nH]n2)s1` [Compound 204, N-(3-carbamoyl-5-(N-(3-methoxypropyl)-N-methylsulfamoyl)thiophen-2-yl)-1H-pyrazole-3-carboxamide], at CFTR ΔF508 mutant [2], it took 218 nM to reach a half-maximal effect (EC50).

`NC(=O)c1cc(S(=O)(=O)N2CCOCC2)sc1NC(=O)C1(O)CCC1` [Compound 199, 2-(1-hydroxycyclobutanecarboxamido)-5-(morpholinosulfonyl) thiophene-3-carboxamide] registered an EC50 on CFTR ΔF508 mutant [2] of 1970 nM.

`NC(=O)c1cc(S(=O)(=O)N2CCCCC2)sc1NC(=O)c1cncs1` [Compound 62, N-(3-carbamoyl-5-(piperidin-1-ylsulfonyl)thiophen-2-yl)thiazole-5-carboxamide]: the EC50 on CFTR ΔF508 mutant [2] stood at 2180 nM.
